{"source": "patent EP2787003A1", "about": "“Antimicrobial peptide produced by marine sponge-derived Bacillus subtilis” (priority 2013, dated 2014)", "key": {"[1]": {"system": "L. innocua", "assay": "Spot on lawn assay", "type": "cell-based, Listeria innocua DPC 3567", "set-up": "key: +, clear halo of growth inhibition; ++: multiple +, increased activity as assessed visually by the increased diameter of the inhibition zone; +++: multiple +, increased activity as assessed visually by the increased diameter of the inhibition zone; ++++: multiple +, increased activity as assessed visually by the increased diameter of the inhibition zone; +++++: multiple +, increased activity as assessed visually by the increased diameter of the inhibition zone; -, no inhibition", "settings": "indicator L. innocua", "method": "(§1) Antimicrobial activity of isolate MMA7 against the indicator strains was initially assessed with a deferred antagonism assay as described by Phelan et al. (2012). Subsequent testing of supernatants, crude extracts and purified compounds was carried out with a well and/or a spot on lawn assays. Essentially, 5 µl of samples were spotted onto 20 ml agar plates seeded with the indicator strain to a final OD600 of 0.015, or 30 µl aliquots were applied to a 5 mm well made on identical plates."}, "[2]": {"system": "C. albicans", "assay": "Spot on lawn assay", "type": "cell-based, Candida albicans SC5314", "set-up": "key: +, clear halo of growth inhibition; ++: multiple +, increased activity as assessed visually by the increased diameter of the inhibition zone; +++: multiple +, increased activity as assessed visually by the increased diameter of the inhibition zone; ++++: multiple +, increased activity as assessed visually by the increased diameter of the inhibition zone; +++++: multiple +, increased activity as assessed visually by the increased diameter of the inhibition zone; -, no inhibition", "settings": "indicator C. albicans", "method": "as §1"}, "[3]": {"system": "B. megaterium", "assay": "Spot on lawn assay", "type": "cell-based, Bacillus megaterium ATCC 19213 (BGSC 7A2)", "set-up": "key: +, clear halo of growth inhibition; ++: multiple +, increased activity as assessed visually by the increased diameter of the inhibition zone; +++: multiple +, increased activity as assessed visually by the increased diameter of the inhibition zone; ++++: multiple +, increased activity as assessed visually by the increased diameter of the inhibition zone; +++++: multiple +, increased activity as assessed visually by the increased diameter of the inhibition zone; -, no inhibition", "settings": "indicator B. megaterium", "method": "as §1"}, "[4]": {"system": "A. hydrophila", "assay": "Spot on lawn assay", "type": "cell-based, Aeromonas hydrophila LMG 2844", "set-up": "key to Antimicrobial activity, spot on lawn assay: +, clear halo of growth inhibition; ++: multiple +, increased activity as assessed visually by the increased diameter of the inhibition zone; +++: multiple +, increased activity as assessed visually by the increased diameter of the inhibition zone; ++++: multiple +, increased activity as assessed visually by the increased diameter of the inhibition zone; +++++: multiple +, increased activity as assessed visually by the increased diameter of the inhibition zone; -, no inhibition", "method": "as §1"}, "[5]": {"system": "S. aureus", "assay": "Spot on lawn assay", "type": "cell-based, Staphylococcus aureus NCDO 949", "set-up": "key: +, clear halo of growth inhibition; ++: multiple +, increased activity as assessed visually by the increased diameter of the inhibition zone; +++: multiple +, increased activity as assessed visually by the increased diameter of the inhibition zone; ++++: multiple +, increased activity as assessed visually by the increased diameter of the inhibition zone; +++++: multiple +, increased activity as assessed visually by the increased diameter of the inhibition zone; -, no inhibition", "settings": "indicator S. aureus", "method": "as §1"}, "[6]": {"system": "MRSA", "assay": "Spot on lawn assay", "type": "cell-based, MRSA ST 530", "set-up": "key: +, clear halo of growth inhibition; ++: multiple +, increased activity as assessed visually by the increased diameter of the inhibition zone; +++: multiple +, increased activity as assessed visually by the increased diameter of the inhibition zone; ++++: multiple +, increased activity as assessed visually by the increased diameter of the inhibition zone; +++++: multiple +, increased activity as assessed visually by the increased diameter of the inhibition zone; -, no inhibition", "settings": "indicator MRSA"}, "[7]": {"system": "C. difficile", "assay": "Spot on lawn assay", "type": "cell-based, Clostridium difficile 001", "set-up": "key: +, clear halo of growth inhibition; ++: multiple +, increased activity as assessed visually by the increased diameter of the inhibition zone; +++: multiple +, increased activity as assessed visually by the increased diameter of the inhibition zone; ++++: multiple +, increased activity as assessed visually by the increased diameter of the inhibition zone; +++++: multiple +, increased activity as assessed visually by the increased diameter of the inhibition zone; -, no inhibition", "settings": "indicator C. difficile", "method": "as §1"}, "[8]": {"system": "C. sporogenes", "assay": "Spot on lawn assay", "type": "cell-based, Clostridium sporogenes NCDO 1791", "set-up": "key: +, clear halo of growth inhibition; ++: multiple +, increased activity as assessed visually by the increased diameter of the inhibition zone; +++: multiple +, increased activity as assessed visually by the increased diameter of the inhibition zone; ++++: multiple +, increased activity as assessed visually by the increased diameter of the inhibition zone; +++++: multiple +, increased activity as assessed visually by the increased diameter of the inhibition zone; -, no inhibition", "settings": "indicator C. sporogenes", "method": "as §1"}, "[9]": {"settings": "dried pellets from 1.5 ml RP-HPLC-purified fractions"}, "[10]": {"system": "L. monocytogenes", "assay": "Spot on lawn assay", "type": "cell-based, Listeria monocytogenes EGDe", "set-up": "key: +, clear halo of growth inhibition; ++: multiple +, increased activity as assessed visually by the increased diameter of the inhibition zone; +++: multiple +, increased activity as assessed visually by the increased diameter of the inhibition zone; ++++: multiple +, increased activity as assessed visually by the increased diameter of the inhibition zone; +++++: multiple +, increased activity as assessed visually by the increased diameter of the inhibition zone; -, no inhibition", "settings": "indicator L. monocytogenes", "method": "as §1"}, "[11]": {"system": "B. cereus", "assay": "Spot on lawn assay", "type": "cell-based, Bacillus cereus NCIMB 9373", "set-up": "key: +, clear halo of growth inhibition; ++: multiple +, increased activity as assessed visually by the increased diameter of the inhibition zone; +++: multiple +, increased activity as assessed visually by the increased diameter of the inhibition zone; ++++: multiple +, increased activity as assessed visually by the increased diameter of the inhibition zone; +++++: multiple +, increased activity as assessed visually by the increased diameter of the inhibition zone; -, no inhibition", "settings": "indicator B. cereus", "method": "as §1"}, "[12]": {"system": "C. parapsilosis", "assay": "Spot on lawn assay", "type": "cell-based, Candida parapsilosis", "set-up": "key: +, clear halo of growth inhibition; ++: multiple +, increased activity as assessed visually by the increased diameter of the inhibition zone; +++: multiple +, increased activity as assessed visually by the increased diameter of the inhibition zone; ++++: multiple +, increased activity as assessed visually by the increased diameter of the inhibition zone; +++++: multiple +, increased activity as assessed visually by the increased diameter of the inhibition zone; -, no inhibition", "settings": "indicator C. parapsilosis", "method": "as §1"}, "[13]": {"system": "L. monocytogenes", "assay": "Activity at different pH values, spot on lawn assay"}}}
{"smiles": "C=C1NC(=O)[C@@H]2CSC[C@@H](NC(=O)[C@@H]3CS[C@@H](C)[C@H]4NC(=O)[C@H](Cc5ccccc5)NC(=O)[C@H](NC(=O)[C@H](CCCNC(=N)N)NC(=O)[C@@H]5CSC[C@@H](NC(=O)[C@H](CCC(N)=O)NC(=O)[C@@H](NC(=O)[C@@H](NC(=O)/C(=C/C)NC(=O)[C@H](CCCCN)NC(=O)CNC(=O)[C@@H](NC(=O)/C(=C/C)NC(=O)[C@H](C)NC(=O)[C@H](Cc6c[nH]c7ccccc67)NC(=O)C(=O)CC)[C@@H](C)CC)[C@@H](C)CC)C(C)C)C(=O)N[C@@H](C(C)C)C(=O)N[C@@H](CCCCN)C(=O)N[C@@H](CCCCN)C(=O)N5)[C@H](C)SC[C@H](NC4=O)C(=O)NCC(=O)N3)C(=O)N[C@@H](CC(C)C)C(=O)NCC(=O)N[C@H](CSC[C@@H](C(=O)N[C@@H](CC(N)=O)C(=O)O)NC(=O)[C@H](CC(N)=O)NC1=O)C(=O)N2", "note": "[Subtilomycin]", "values": [{"measurement": "Antimicrobial activity, spot on lawn assay", "setting": "[1]", "value": "++"}, {"measurement": "Antimicrobial activity, spot on lawn assay", "setting": "[2]", "value": "-"}, {"measurement": "Antimicrobial activity, spot on lawn assay", "setting": "[3]", "value": "++"}, {"measurement": "Amount of peptide needed for detectable activity relative to that required to inhibit the Gram-positive indicators", "setting": "[4]; A. hydrophila", "value": "four to five fold more peptide"}, {"measurement": "Antimicrobial activity, spot on lawn assay", "setting": "[4]; indicator A. hydrophila, *activity only detected with 4 to 5 times more peptide than that used for the other indicators", "value": "+*"}, {"measurement": "Antimicrobial activity, spot on lawn assay", "setting": "[5]", "value": "+"}, {"measurement": "Antimicrobial activity, spot on lawn assay", "setting": "[6]", "value": "+"}, {"measurement": "Antimicrobial activity, spot on lawn assay", "setting": "[7]", "value": "-"}, {"measurement": "Antimicrobial activity, spot on lawn assay", "setting": "[8]", "value": "+++"}, {"measurement": "Solubility in water", "setting": "[9]", "value": "fully soluble"}, {"measurement": "Antimicrobial activity, spot on lawn assay", "setting": "[10]", "value": "++"}, {"measurement": "Antimicrobial activity, spot on lawn assay", "setting": "[11]", "value": "++"}, {"measurement": "Antimicrobial activity, spot on lawn assay", "setting": "[12]", "value": "-"}, {"measurement": "Activity at different pH", "setting": "[13]; pH 9, 1 h at room temperature", "value": "reduction in activity"}, {"measurement": "Activity at different pH", "setting": "[13]; pH range 2 to 8, 1 h at room temperature", "value": "fully active"}, {"measurement": "Activity at different pH", "setting": "[13]; pH values higher than 9 (up to 11)", "value": "no activity"}]}
